Results: publication PMC10256634, “Comparative in vivo toxicokinetics of silver powder, nanosilver and soluble silver compounds after oral administration to rats” (Archives of Toxicology, 2023)

Columns and labels:
[1] = Behaviour, homogeneity and stability of dosing formulations; format: physicochemical; settings: oral: 1% MC (AgMP, AgNP) or purified water (AgAc, AgNO3); i.v.: 5% glucose or purified water
Method: Further details are provided under Supplementary information.
Polypropylene vessels and containers were used throughout preparation and storage to limit artefactual loss of Ag from adsorption onto surfaces (Sekine et al. [2015]). Vessels were pre-cleaned with a dilute nitric acid solution and then rinsed thoroughly with ultrapure water to remove contaminants. Chloride- or phosphate-containing vehicles and reagents were avoided to prevent Ag precipitation. Dosing formulations were prepared once for the single-dose administrations, and weekly for the repeated dose phase (divided into daily aliquots). […]
An extensive analytical pre-testing program was performed to fully characterize the test items and develop protocols to optimise the homogeneity and stability of dosing formulations. […] The Ag^+ fraction in the silver powder (AgMP) dosing formulations was determined to be a maximum of 0.004%. […]
To assure their accurate concentration, uniform homogeneity and physical stability, dosing formulation concentrations were analytically verified after preparation but before first administration using inductively coupled plasma mass spectrometry (ICP-MS) for determination of total Ag content. […] Samples of each formulation prepared for i.v. and single oral administration, as well as for Weeks 1 and 4 of the repeated dosing segment were analysed. […]

[2] = Total Ag content in tissues after 28 days repeated oral dosing (ICP-MS); format: in vivo, Sprague–Dawley rats
Description: (§1) Comparative TK data for the various test items were obtained after single doses, and repeated dose administration for 28 days. This was based on measurement of Ag levels in whole blood at various timepoints, and also total Ag content in tissues (in the repeated dose study phase). This approach facilitated a direct quantitative comparison of parameters such as bioavailability, achieved systemic exposure and the delivered Ag dose to tissues after administration of the different Ag test items. Determination of single-dose p.o. and i.v. blood-level profiles was intended to provide information on absolute bioavailability (F value). Parallel vehicle control groups were included within each phase.
Following final blood sampling, animals were euthanised using carbon dioxide asphyxiation, with subsequent exsanguination, prior to macroscopic examination for the investigation of any abnormalities. Tissues for analysis of total Ag content were obtained from animals administered the test items for 28 days. The tissue set comprised: brain (whole), bone marrow (from both femurs), small intestine (duodenum/ileum/jejenum), liver, spleen, ovaries, testes (excluding epididymides) and uterus. The luminal contents of GI tract samples were thoroughly flushed out with cold purified water. After weighing, tissues were retained frozen (− 20 °C).
Analysis occurred within the 48-day assured stability period.
All bioanalytical methods underwent validation before deployment.

[3] = Absolute bioavailability (F value) from single-dose oral and i.v. blood AUC; format: in vivo, Sprague–Dawley rats; settings: single-dose oral vs i.v. AUC; data not shown
Method: as §1, with “All in vivo and analytical experimental segments were performed in accordance with Good Laboratory Practice standards (OECD [1998]) and the adopted TK experimental design conformed to approaches set out in OECD TG 417 ([2010]). Comparative” for “Comparative”
Animals (4 per sex/per treatment level) received test item via i.v. injection or oral gavage administration. Intravenous injection (bolus) was via the tail vein. Oral gavage administration was performed using a suitable graduated syringe and a rubber catheter. Dosing volumes for i.v. and oral administration were calculated based on the individual animal bodyweights.

[4] = Toxicokinetics after single oral gavage dose, total Ag in whole blood (ICP-MS)
[5] = 28 d oral 5 mg/kg bw/d [Ag equivalent 3.25 AgAc, 3.2 AgNO3]
[6] = 28 d oral 5 mg/kg bw/d [Ag equivalent 3.25 AgAc, 3.2 AgNO3], female
[7] = 28 d oral 5 mg/kg bw/d [Ag equivalent 3.25 AgAc, 3.2 AgNO3], male
[8] = 28 d oral 125 [80 Ag] mg/kg bw/d
[9] = 28 d oral 125 [80 Ag] mg/kg bw/d, female
[10] = 28 d oral 125 [80 Ag] mg/kg bw/d, male
[11] = single oral dose 5 mg/kg bw [Ag equivalent 3.25 AgAc, 3.2 AgNO3], female
[12] = single oral dose 5 mg/kg bw [Ag equivalent 3.25 AgAc, 3.2 AgNO3], male
[13] = single oral dose 125 [80 Ag] mg/kg bw, female
[14] = single oral dose 125 [80 Ag] mg/kg bw, male
[15] = 28 d oral 175 [114 Ag] mg/kg bw/d
[16] = 28 d oral 175 [114 Ag] mg/kg bw/d, female
[17] = 28 d oral 175 [114 Ag] mg/kg bw/d, male
[18] = single oral dose 175 [114 Ag] mg/kg bw, female
[19] = single oral dose 175 [114 Ag] mg/kg bw, male

## O=[N+]([O-])[O-].[Ag+] [AgNO3, silver(I) nitrate]
[1]
  Behaviour in dosing vehicles: Soluble up to the highest concentration of test item employed. See also Table 2
[2]; [5]
  Silver level in ovary: 1484 ng Ag/g tissue
  Silver level in testis: 231 ng Ag/g tissue
  Silver level in uterus: 145 ng Ag/g tissue
[2]; [6]
  Silver level in GI tract: 2438 ng Ag/g tissue
  Silver level in bone marrow: 87 ng Ag/g tissue
  Silver level in brain: 177 ng Ag/g tissue
  Silver level in liver: 130 ng Ag/g tissue
  Silver level in spleen: 722 ng Ag/g tissue
[2]; [7]
  Silver level in GI tract: 1310 ng Ag/g tissue
  Silver level in bone marrow: 73 ng Ag/g tissue
  Silver level in brain: 142 ng Ag/g tissue
  Silver level in liver: 81.7 ng Ag/g tissue
  Silver level in spleen: 404 ng Ag/g tissue
[2]; [8]
  Silver level in ovary: 44025 ng Ag/g tissue
  Silver level in testis: 1464 ng Ag/g tissue
  Silver level in uterus: 22466 ng Ag/g tissue
[2]; [9]
  Silver level in GI tract: 14798 ng Ag/g tissue
  Silver level in bone marrow: 25200 ng Ag/g tissue
  Silver level in brain: 1019 ng Ag/g tissue
  Silver level in liver: 16024 ng Ag/g tissue
  Silver level in spleen: 62335 ng Ag/g tissue
[2]; [10]
  Silver level in GI tract: 10592 ng Ag/g tissue
  Silver level in bone marrow: 46553 ng Ag/g tissue
  Silver level in brain: 1091 ng Ag/g tissue
  Silver level in liver: 28859 ng Ag/g tissue
  Silver level in spleen: 54070 ng Ag/g tissue
[3]
  absolute bioavailability (F value): ≤ 5%
[4]; [11]
  AUC0-t: 4610 ng·h/mL
  AUC(0–24): 1740 ng·h/mL
  Cmax: 109 ng/mL
  Tmax: 3.25 h
  t1/2: 30.8 h
[4]; [12]
  AUC0-t: 1550 ng·h/mL
  AUC(0–24): 994 ng·h/mL
  Cmax: 62.5 ng/mL
  Tmax: 2.5 h
  t1/2: 18.7 h
[4]; [13]
  AUC0-t: 18,700 ng.h/mL
  AUC(0–24): 7670 ng·h/mL
  Cmax: 421 ng/mL
  Tmax: 15 h
  t1/2: 31.7 h
[4]; [14]
  AUC0-t: 19,400 ng.h/mL
  AUC(0–24): 5970 ng·h/mL
  Cmax: 348 ng/mL
  Tmax: 21 h
  t1/2: 37.6 h

## CC(=O)[O-].[Ag+] [AgAc, Silver(I) acetate]
[1]
  Behaviour in dosing vehicles: Soluble up to the highest concentration of test item employed. See also Table 2
[2]; [5]
  Silver level in ovary: 2197 ng Ag/g tissue
  Silver level in testis: 167 ng Ag/g tissue
  Silver level in uterus: 188 ng Ag/g tissue
[2]; [6]
  Silver level in GI tract: 3797 ng Ag/g tissue
  Silver level in bone marrow: 126 ng Ag/g tissue
  Silver level in brain: 169 ng Ag/g tissue
  Silver level in liver: 305 ng Ag/g tissue
  Silver level in spleen: 990 ng Ag/g tissue
[2]; [7]
  Silver level in GI tract: 2770 ng Ag/g tissue
  Silver level in bone marrow: 62 ng Ag/g tissue
  Silver level in brain: 142 ng Ag/g tissue
  Silver level in liver: 55.4 ng Ag/g tissue
  Silver level in spleen: 283 ng Ag/g tissue
[2]; [15]
  Silver level in ovary: 39668 ng Ag/g tissue
  Silver level in testis: 1531 ng Ag/g tissue
  Silver level in uterus: 11094 ng Ag/g tissue
[2]; [16]
  Silver level in GI tract: 103814 ng Ag/g tissue
  Silver level in bone marrow: 46761 ng Ag/g tissue
  Silver level in brain: 1455 ng Ag/g tissue
  Silver level in liver: 21872 ng Ag/g tissue
  Silver level in spleen: 141560 ng Ag/g tissue
[2]; [17]
  Silver level in GI tract: 83211 ng Ag/g tissue
  Silver level in bone marrow: 21373 ng Ag/g tissue
  Silver level in brain: 1458 ng Ag/g tissue
  Silver level in liver: 22660 ng Ag/g tissue
  Silver level in spleen: 96379 ng Ag/g tissue
[2]; 28 d oral, matched 35–36 mg Ag/kg bw/d, silver acetate vs nanosilver or silver powder, nanosilver vs silver powder (except spleen of male animals), p < 0.05
  Ag in tissue concentrations, comparison between test items: significantly higher in all tissues
[3]
  absolute bioavailability (F value): ≤ 5%
[4]; [11]
  AUC0-t: 2360 ng·h/mL
  Cmax: 108 ng/mL
  DN AUC0-t: 726 (ng.h/mL)/(mg/kg bw/d)
  DN AUC(0–24): 431 (ng.h/mL)/(mg/kg bw/d)
  Tmax: 3.5 h
  t1/2: 24.5 h
[4]; [12]
  AUC0-t: 1430 ng·h/mL
  Cmax: 71.6 ng/mL
  DN AUC0-t: 440 (ng.h/mL)/(mg/kg bw/d)
  DN AUC(0–24): 323 (ng.h/mL)/(mg/kg bw/d)
  Tmax: 5 h
  t1/2: 23.2 h
[4]; [18]
  AUC0-t: 31,100 ng.h/mL
  Cmax: 632 ng/mL
  DN AUC0-t: 273 (ng.h/mL)/(mg/kg bw/d)
  DN AUC(0–24): 87 (ng.h/mL)/(mg/kg bw/d)
  Tmax: 15.3 h
  t1/2: 25.5 h
[4]; [19]
  AUC0-t: 23,300 ng.h/mL
  Cmax: 367 ng/mL
  DN AUC0-t: 204 (ng.h/mL)/(mg/kg bw/d)
  DN AUC(0–24): 55 (ng.h/mL)/(mg/kg bw/d)
  Tmax: 20.3 h
